Laboratory results reported in PubChem BioAssay (NCI).
Where “and” joins values, the source holds several entries; their conditions need not be identical. Equal values may be shown once.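 Method: 48-hour compound exposure of cells in 96-well plates, five concentrations, linear interpolation of endpoints. GI50 marks 50% less growth. TGI denotes the concentration required for complete inhibition of growth.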

Key:
Assay in all cases: DTP human tumour cell line panel, 48 h
DLD-1 colon = test system: DLD-1 colon
DMS 273 small cell lung = test system: DMS 273 small cell lung
RXF-631 renal = test system: RXF-631 renal
SNB-78 CNS = test system: SNB-78 CNS
XF 498 CNS = test system: XF 498 CNS
BT-549 breast = test system: BT-549 breast
HOP-18 NSCLC = test system: HOP-18 NSCLC
KM20L2 colon = test system: KM20L2 colon
MDA-N = test system: MDA-N

| SMILES | TGI (DLD-1 colon) | GI50 (BT-549 breast) | TGI (BT-549 breast) | TGI (KM20L2 colon) | further results |
| --- | --- | --- | --- | --- | --- |
| OC1(C23CC4CC(CC(C4)C2)C3)CSCC1(O)C12CC3CC(CC(C3)C1)C2 (configuration not stated) | > 100 µM | – | – | – | TGI (DMS 273 small cell lung): > 100 µM; TGI (RXF-631 renal): > 100 µM; TGI (SNB-78 CNS): > 100 µM; TGI (XF 498 CNS): > 100 µM |
| COC1CC(O[C@H]2CC[C@@]3(C)[C@H](CC[C@@H]4[C@@H]3CC[C@]3(C)[C@@H](C5=CC(=O)OC5)[C@@H](OC(C)=O)C[C@]43O)C2)OC(C)C1O (some centres not stated) | – | < 0.01 µM | < 0.01 µM | – | – |
| CC(CN(C)C)/C(=N\Nc1ccccc1)c1ccccc1 (configuration not stated) | > 100 µM | – | – | 0.333 µM | TGI (DMS 273 small cell lung): 12.1 µM; TGI (HOP-18 NSCLC): 67.3 µM; TGI (SNB-78 CNS): 83 µM |
| COc1ccc(C/C(C)=C(/c2ccc(OCCN3CCCCC3)cc2)c2ccc(OC(=O)NCc3ccccc3)cc2)cc1 | – | 0.379 µM | 0.763 µM | – | – |
| C[C@H](OCc1ccccc1)C(=O)N1CCS(=O)(=O)N2CCC[C@@H]2C1=O | > 100 µM | – | – | > 100 µM | TGI (HOP-18 NSCLC): > 100 µM; TGI (RXF-631 renal): > 100 µM; TGI (SNB-78 CNS): > 100 µM; TGI (XF 498 CNS): 94.7 µM |
| C=CCN=C(N/N=C/c1ccc([N+](=O)[O-])o1)NS(=O)(=O)c1cc(C(=O)Nc2ccc(Cl)cc2)c(Cl)cc1SC | – | 5.05 µM | > 79.7 µM | – | – |
| CC[C@@]1(O)C(=O)OCc2c1cc1n(c2=O)Cc2cc3cc4c(cc3nc2-1)OCO4 | > 100 µM | – | – | > 100 µM | GI50 (DLD-1 colon): 0.112 µM; TGI (DMS 273 small cell lung): 0.195 µM; GI50 (HOP-18 NSCLC): < 0.001 µM; TGI (HOP-18 NSCLC): 0.609 µM; GI50 (KM20L2 colon): 0.0569 µM; GI50 (XF 498 CNS): 0.114 µM; TGI (XF 498 CNS): 0.461 µM and 0.657 µM |
| CN(C)CCN1C(=O)c2c(c3c4ccccc4n4c3c3c2c2ccccc2n3C2CC(O)C(O)C4(C)O2)C1=O (configuration not stated) | – | 5.32 µM | 13 µM | – | – |
| O=C1NNC2(C(=O)N1)c1ccccc1-c1ccccc12 | – | – | > 10 µM | – | TGI (MDA-N): > 10 µM |
| COc1cc(OC)c2nc(C)c3c(c2c1)SCC3 | – | – | – | – | TGI (MDA-N): 85 µM |
| Cc1cc(NCCCN(C)C)c2ccc3c(ccc4c(NCCCN(C)C)cc(C)nc43)c2n1 | – | 1.85 µM | 3.53 µM | – | – |
| C/C(O)=C(/C=N/C(=S)Nc1ccc(S(N)(=O)=O)cc1)C(=O)Nc1ccccc1C | – | – | > 100 µM | – | – |
| CC(=O)Nc1ccc(S(=O)(=O)N/N=C/CN2C(=O)c3ccccc3C2=O)cc1 | > 100 µM | – | – | > 100 µM | TGI (DMS 273 small cell lung): > 100 µM; TGI (XF 498 CNS): > 100 µM |
| O=C1CCCCC1S(=O)(=O)c1ccccc1 (configuration not stated) | > 100 µM | – | – | > 100 µM | TGI (DMS 273 small cell lung): > 100 µM; TGI (HOP-18 NSCLC): > 100 µM; TGI (SNB-78 CNS): > 100 µM; TGI (XF 498 CNS): > 100 µM |
| COc1ccc(CCN2CC=Cn3c2nc2ccccc2c3=O)cc1 | – | 0.0611 µM | 15.5 µM | – | – |
| COc1cc(C(=O)c2c(-c3ccccc3)oc3c(OC)cccc23)cc(OC)c1OC | – | 0.154 µM | 1.5 µM | – | – |
| NCCCC[C@@H]1NC(=O)[C@H]2CCCN2C(=O)[C@H](Cc2ccccc2)CNC(=O)[C@H](Cc2ccccc2)NC1=O | – | > 37.5 µM | > 37.5 µM | – | – |
| O=C1/C(=C/c2ccccc2)CN(C(=O)CCN2CCOCC2)C/C1=C\c1ccccc1 | 4.28 µM | – | 4.71 µM | 3.9 µM | TGI (DMS 273 small cell lung): 4.04 µM; TGI (HOP-18 NSCLC): 30.4 µM; TGI (MDA-N): 4.07 µM; TGI (RXF-631 renal): 20.9 µM; TGI (SNB-78 CNS): 27.1 µM |
| CSc1nnc(CCC(=O)Nc2c(C)cccc2C)o1 | > 100 µM | – | – | > 100 µM | TGI (HOP-18 NSCLC): > 100 µM; TGI (RXF-631 renal): > 100 µM; TGI (SNB-78 CNS): > 100 µM; TGI (XF 498 CNS): > 100 µM |

| SMILES | TGI (DLD-1 colon) | GI50 (BT-549 breast) | TGI (BT-549 breast) | TGI (KM20L2 colon) | further results |
| --- | --- | --- | --- | --- | --- |
| NC(=O)CN(CC(N)=O)C(N)=O | – | – | – | > 100 µM | TGI (DMS 273 small cell lung): > 100 µM; TGI (HOP-18 NSCLC): > 100 µM; TGI (SNB-78 CNS): > 100 µM; TGI (XF 498 CNS): > 100 µM |
| NNC(=O)C1CCC(=O)N1S(=O)(=O)c1ccccc1 (configuration not stated) | > 100 µM | – | – | > 100 µM | TGI (DMS 273 small cell lung): > 100 µM; TGI (SNB-78 CNS): > 100 µM; TGI (XF 498 CNS): > 100 µM |
| COc1cc2c(cc1OC)[C@H](C)N1CCc3cc(OC)c(OC)cc3[C@@H]1C2 | – | – | > 100 µM | – | TGI (MDA-N): > 100 µM |
| CCCCOC(=O)N1CCN(/[N+]([O-])=N/Oc2ccc([N+](=O)[O-])cc2[N+](=O)[O-])CC1 | – | 4.87 µM | 17.7 µM | – | – |
| COc1cc(OC)c(C/C=C/c2ccccc2)cc1O | – | – | 29.6 µM | – | TGI (MDA-N): 38.8 µM |
| C#CC#CC#CC#CC#CC#CC#CC#CCC1OCC(COC(=O)O[C@@H](C(=O)O[C@H]2C[C@@]3(O)[C@@H](OC(=O)c4ccccc4)[C@@H]4[C@]5(OC(C)=O)CO[C@@H]5C[C@H](O)[C@@]4(C)C(=O)[C@H](OC(C)=O)C(=C2C)C3(C)C)[C@@H](NC(=O)c2ccccc2)c2ccccc2)O1 (some centres not stated) | – | 0.586 µM | > 33.3 µM | – | – |
| O=C1c2cc3c(cc2[C@@H]2[C@H]1c1ccc([N+](=O)[O-])cc1C(=O)N2CCCBr)OCO3 | – | < 0.01 µM | 0.411 µM | – | – |
| CC1CCC/C1=C(/I)C(=O)c1ccccc1 (configuration not stated) | – | – | – | – | TGI (MDA-N): > 100 µM |
| C=C1C(O)C2C(=C(CC)C13CC3)C(=O)C(C)(C)C2OC (configuration not stated) | – | > 100 µM | > 100 µM | – | – |
| Cc1nc(Nc2ccccc2)sc1C(=O)CC(=O)C(=O)Nc1c(C(C)C)cccc1C(C)C | > 100 µM | – | – | > 100 µM | TGI (DMS 273 small cell lung): > 100 µM; TGI (HOP-18 NSCLC): > 100 µM; TGI (SNB-78 CNS): > 100 µM; TGI (XF 498 CNS): > 100 µM |
| CC1=NN(C(=O)c2ccccc2O)C(=O)/C1=C/c1ccc(O)cc1 | > 100 µM | – | > 100 µM | > 100 µM | TGI (MDA-N): > 100 µM; TGI (SNB-78 CNS): > 100 µM |
| CCOC(=O)/C(C1=NCCN1)=C(\O)c1ccccc1 | > 100 µM | – | – | > 100 µM | TGI (HOP-18 NSCLC): > 100 µM; TGI (RXF-631 renal): > 100 µM; TGI (XF 498 CNS): > 100 µM |
| O=C(/C=C/Sc1cc(C(F)(F)F)cc(C(F)(F)F)c1)c1ccc(Cl)cc1 | – | 11.5 µM | 23.8 µM | – | – |
| N#C/C(=C\c1ccsc1)c1nc2ccccc2o1 | – | 48.4 µM | > 100 µM | – | – |
| Cc1cc([N+](=O)[O-])c(NS(=O)(=O)c2cccc(C(=O)O)c2)cc1-c1cccnc1 | – | > 100 µM | > 100 µM | – | – |
| CCOc1cc2c(C(=O)CC)c(O)ccc2o1 | > 43.2 µM | – | – | > 100 µM | TGI (DMS 273 small cell lung): > 100 µM; TGI (SNB-78 CNS): > 100 µM; TGI (XF 498 CNS): > 80.1 µM |
| CC(=O)[CH-]C(=O)c1ccccc1.CC(=O)[CH-]C(=O)c1ccccc1.CC[O-].CC[O-].[Hf+4] | > 100 µM | – | – | > 100 µM | GI50 (DLD-1 colon): > 100 µM; GI50 (HOP-18 NSCLC): > 100 µM; TGI (HOP-18 NSCLC): > 100 µM; GI50 (KM20L2 colon): > 100 µM |
| COc1cccc(-c2c[nH]c3c(N/N=C/c4ccncc4)ncnc23)c1 | – | 4.89 µM | 18.5 µM | – | – |
